Laboratory results from PubChem BioAssay AID1918936 (Molecular Pharmacology Branch, DTP, NCI, 2023).

Test system: 349418-098-R-PDC complex spheroid viability
Experiment: Anticancer human tumor 349418-098-R-PDC patient-derived lung adenocarcinoma cell line growth inhibition
Conditions: for IC50: curve of first compound; for viability, T/C: stronger effect = lower value
Method in brief: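 Complex spheroids of tumor cells with HUVEC and human MSCs, exposed to iadademstat combined with other agents. Each agent tested in half-log steps from near clinical Cmax (else 10 microM top), DMSO ≤0.25%.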

[1] = second compound 0.1 µM, first compound 0.000316 µM
[2] = second compound 0.1 µM, first compound 0.001 µM
[3] = second compound 0.1 µM, first compound 0.00316 µM
[4] = second compound 0.1 µM, first compound 0.01 µM
[5] = second compound 0.1 µM, first compound 0.0316 µM
[6] = second compound 0.1 µM, first compound 0.1 µM
[7] = second compound 0.316 µM, first compound 0.000316 µM
[8] = second compound 0.316 µM, first compound 0.001 µM
[9] = second compound 0.316 µM, first compound 0.00316 µM
[10] = second compound 0.316 µM, first compound 0.01 µM
[11] = second compound 0.316 µM, first compound 0.0316 µM
[12] = second compound 0.316 µM, first compound 0.1 µM
[13] = second compound 1 µM, first compound 0.000316 µM
[14] = second compound 1 µM, first compound 0.001 µM
[15] = second compound 1 µM, first compound 0.00316 µM
[16] = second compound 1 µM, first compound 0.01 µM
[17] = second compound 1 µM, first compound 0.0316 µM
[18] = second compound 1 µM, first compound 0.1 µM
[19] = second compound 3.16 µM, first compound 0.000316 µM
[20] = second compound 3.16 µM, first compound 0.001 µM
[21] = second compound 3.16 µM, first compound 0.00316 µM
[22] = second compound 3.16 µM, first compound 0.01 µM
[23] = second compound 3.16 µM, first compound 0.0316 µM
[24] = second compound 3.16 µM, first compound 0.1 µM
[25] = second compound 10 µM, first compound 0.000316 µM
[26] = second compound 10 µM, first compound 0.001 µM
[27] = second compound 10 µM, first compound 0.00316 µM
[28] = second compound 10 µM, first compound 0.01 µM
[29] = second compound 10 µM, first compound 0.0316 µM
[30] = second compound 10 µM, first compound 0.1 µM
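Note: spheroids exposed to agents for seven days before readout.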
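Throughout, for viability, T/C: 100% = DMSO vehicle control wells.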

Compound	IC50 (second compound 0.1 µM)	IC50 (second compound 0.316 µM)	IC50 (second compound 1 µM)	IC50 (second compound 3.16 µM)	IC50 (second compound 10 µM)	viability, T/C [1]	viability, T/C [2]	viability, T/C [3]	viability, T/C [4]	viability, T/C [5]	viability, T/C [6]	viability, T/C [7]	viability, T/C [8]	viability, T/C [9]	viability, T/C [10]	viability, T/C [11]	viability, T/C [12]	viability, T/C [13]	viability, T/C [14]	viability, T/C [15]	further results
CC(C)CC(NC(=O)C(Cc1ccccc1)NC(=O)c1cnccn1)B(O)O (stereo not given) + NC1CC1c1ccc(-c2cccc(O)c2)cc1	< 0.316 nM	< 0.316 nM	< 0.316 nM	< 0.316 nM	< 0.316 nM	2.67%	1.51%	1.31%	0.5%	0.51%	0.69%	1.86%	1.09%	0.81%	0.41%	0.45%	0.34%	1.69%	1.07%	0.72%	viability, T/C [16]: 0.42%; viability, T/C [17]: 0.29%; viability, T/C [18]: 0.53%; viability, T/C [19]: 1.62%; viability, T/C [20]: 0.92%; viability, T/C [21]: 0.86%; viability, T/C [22]: 1.06%; viability, T/C [23]: 0.37%; viability, T/C [24]: 0.41%; viability, T/C [25]: 0.84%; viability, T/C [26]: 0.41%; viability, T/C [27]: 0.68%; viability, T/C [28]: 0.31%; viability, T/C [29]: 0.14%; viability, T/C [30]: 0.17%
CC[C@@]1(O)C(=O)OCc2c1cc1n(c2=O)Cc2cc3c(CN(C)C)c(O)ccc3nc2-1 + NC1CCC(NC2CC2c2ccccc2)CC1	2.04 nM	1.94 nM	2.12 nM	2.23 nM	1.87 nM	98.8%	86.5%	27.2%	8.74%	4.98%	3.65%	113%	78.6%	28.8%	8.08%	5.09%	3.1%	98.9%	84.8%	31.4%	viability, T/C [16]: 8.25%; viability, T/C [17]: 5.11%; viability, T/C [18]: 2.94%; viability, T/C [19]: 91.6%; viability, T/C [20]: 83.5%; viability, T/C [21]: 35.2%; viability, T/C [22]: 9.52%; viability, T/C [23]: 5.25%; viability, T/C [24]: 3.35%; viability, T/C [25]: 95%; viability, T/C [26]: 71%; viability, T/C [27]: 31.8%; viability, T/C [28]: 12%; viability, T/C [29]: 4.67%; viability, T/C [30]: 3.15%
